ChEMBL document CHEMBL1201862, “PubChem BioAssay data set” (2004)
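Five compound concentrations were applied to cells in 96-well plates for 48 hours; endpoints were derived by simple linear interpolation of the resulting dose-response curve. The concentration for 50% growth inhibition is given as GI50.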 The source made the active and inactive calls. Rule as the data show it: active = GI50 up to about 1.1 µM and inactive = higher.

Legend:
Assay in all cases: NCI tumour cell line growth inhibition, 48 h
[1] = tested on: U-251
[2] = tested on: HOP-62
[3] = tested on: DLD-1
[4] = tested on: HCC 2998
[5] = tested on: SR
[6] = tested on: NCI-H23
[7] = tested on: HOP-92
[8] = tested on: OVCAR-4
[9] = tested on: CAKI-1
[10] = tested on: OVCAR-5
[11] = tested on: SK-MEL-5
[12] = tested on: UO-31
[13] = tested on: 786-0
[14] = tested on: SNB-75
[15] = tested on: UACC-62
[16] = tested on: UACC-257
[17] = tested on: NCI-H460

Measured: GI50

Cc1ccc(C(c2c(O)c3ccccc3n(-c3ccccc3)c2=O)c2c(O)c3ccccc3n(-c3ccccc3)c2=O)cc1
inactive: [1] > 100 µM | [2] > 100 µM | [3] > 100 µM | [4] > 100 µM | [5] 62.4 µM | [6] > 100 µM | [7] > 100 µM | [8] > 100 µM | [9] > 100 µM | [10] > 100 µM | [11] > 100 µM | [12] > 100 µM | [13] 38.1 µM

Cn1c(=O)c2/c(n(C)c1=O)=N\C=c1\c(=O)n(C)c(=O)n(C)\c1=N\C=2
inactive: [1] > 100 µM | [2] > 100 µM | [3] > 100 µM | [4] > 100 µM | [14] 39.4 µM | [15] > 100 µM | [6] > 100 µM | [7] > 100 µM | [8] > 100 µM | [16] > 100 µM | [9] > 100 µM | [17] > 100 µM | [10] > 100 µM | [11] > 100 µM | [12] > 100 µM | [13] > 100 µM

CCOP(=O)(OCC)C(C(=O)OC)C(=O)C(=O)Nc1cccc([N+](=O)[O-])c1 (stereo not given)
inactive: [1] > 100 µM | [2] > 100 µM | [3] > 100 µM | [4] > 100 µM | [14] > 100 µM | [5] > 100 µM | [15] > 100 µM | [6] > 100 µM | [8] > 100 µM | [16] > 100 µM | [9] > 100 µM | [17] > 100 µM | [10] > 100 µM | [11] > 100 µM | [12] > 100 µM | [13] > 100 µM

CN(C(=O)c1ccc(Cl)cc1)C(=S)N1CCN(c2ccccn2)CC1
inactive: [1] > 100 µM | [2] > 100 µM | [3] > 100 µM | [14] > 100 µM | [5] > 100 µM | [15] > 100 µM | [6] > 100 µM | [7] 35.6 µM | [8] > 100 µM | [16] > 100 µM | [9] > 100 µM | [17] > 100 µM | [10] > 100 µM | [11] > 100 µM | [12] > 100 µM | [13] > 100 µM

Cc1c(Cl)ccc2c1NC(=O)C2(O)CC(=O)c1ccc2ccccc2c1 (stereo not given)
inactive: [1] 71.6 µM | [2] > 100 µM | [3] 79.8 µM | [4] > 100 µM | [14] 14.2 µM | [15] 21.5 µM | [6] 28.2 µM | [7] 44 µM | [8] 46.9 µM | [16] 55.8 µM | [9] 42 µM | [17] 67.1 µM | [10] > 100 µM | [11] > 10 µM | [12] 22.4 µM | [13] 29 µM

Cn1c2ccccc2c2cc(-c3ccccc3)c3c(c21)C(=O)c1ccccc1C3=O
inactive: [2] 40.5 µM | [3] 13.3 µM | [4] 48.8 µM | [14] 34.4 µM | [5] 4.79 µM | [15] 13.3 µM | [6] 5.79 µM | [7] 12.3 µM | [8] 14.5 µM | [16] 18 µM | [9] 28.3 µM | [12] 11 µM | [13] 16.9 µM

Nc1ccn(CCNCCn2cnc3nc(N)[nH]c(=O)c32)c(=O)n1
inactive: [1] > 100 µM | [2] > 100 µM | [3] > 100 µM | [4] > 100 µM | [5] > 100 µM | [6] > 100 µM | [7] > 100 µM | [8] > 100 µM | [16] > 100 µM | [17] > 100 µM | [10] > 100 µM | [12] > 100 µM | [13] > 100 µM

COc1ccccc1NC(=O)CC(=O)N/N=C/c1ccc(N(CCC#N)S(=O)(=O)c2ccccc2)cc1
inactive: [1] > 100 µM | [2] > 100 µM | [3] > 100 µM | [4] > 100 µM | [14] > 100 µM | [5] > 100 µM | [15] > 100 µM | [6] > 100 µM | [7] > 100 µM | [8] > 100 µM | [16] > 100 µM | [9] > 100 µM | [17] > 100 µM | [10] > 100 µM | [11] > 100 µM | [12] > 100 µM | [13] > 100 µM

Cc1ccc([N+](=O)[O-])cc1NC(=O)C(=O)Cc1nc2ccc(C(=O)c3ccccc3)cc2nc1O
inactive: [2] > 100 µM | [3] > 100 µM | [4] > 100 µM | [14] 56.5 µM | [5] 60 µM | [15] > 100 µM | [6] > 100 µM | [7] 42.2 µM | [8] > 100 µM | [16] > 100 µM | [9] > 100 µM | [17] > 100 µM | [11] > 100 µM | [12] > 100 µM | [13] > 100 µM

Nn1c(CCCl)nc2c(Br)cc(Br)cc2c1=O
inactive: [1] 23.1 µM | [2] 26.8 µM | [3] 26.8 µM | [4] 40.2 µM | [14] 27.8 µM | [5] 20.3 µM | [15] 31.9 µM | [6] 24 µM | [7] 33 µM | [8] 19.1 µM | [16] 34.9 µM | [9] 30.7 µM | [17] 25.3 µM | [10] 30.1 µM | [11] 17.3 µM | [12] 25.1 µM | [13] 27.7 µM

COC(=O)C1C(/C=C/c2ccoc2)ON2CCC[C@@H]12 (stereo not given in full)
inactive: [1] > 100 µM | [2] > 100 µM | [3] > 100 µM | [4] > 100 µM | [14] 87.5 µM | [5] > 100 µM | [6] > 100 µM | [7] > 100 µM | [8] > 100 µM | [16] > 100 µM | [9] > 100 µM | [17] > 100 µM | [10] > 100 µM | [12] > 100 µM | [13] > 100 µM

CCCCN(CCCC)CC(C(=O)Nc1ccc([N+](=O)[O-])cc1[N+](=O)[O-])/C(C)=N\NC(=O)c1ccncc1 (stereo not given)
inactive: [1] > 100 µM | [2] > 100 µM | [3] > 100 µM | [4] > 100 µM | [14] 76.6 µM | [15] > 100 µM | [6] > 100 µM | [7] 90.6 µM | [8] > 100 µM | [16] > 100 µM | [9] > 100 µM | [17] > 100 µM | [10] > 100 µM | [11] > 100 µM | [12] > 100 µM | [13] > 100 µM

COC(=O)C1=Cc2c(cc(OC)c(OC)c2OC)[C@H](c2ccc(OC)c(OC)c2OC)C1C(=O)OC (stereo not given in full)
inactive: [1] > 100 µM | [2] > 100 µM | [3] > 100 µM | [4] > 100 µM | [14] > 100 µM | [5] 46.7 µM | [15] 54.2 µM | [6] > 100 µM | [7] 17.4 µM | [8] > 100 µM | [16] > 100 µM | [9] > 100 µM | [17] > 100 µM | [10] > 100 µM | [11] > 100 µM | [12] 47.1 µM | [13] > 100 µM
